Values of other authors as cited in PubChem BioAssay AID1259410 (Chemical Carcinogenesis Research Information System (CCRIS), 2018).

System: rodent tumor promotion studies, tumor incidence
Assay: CCRIS tumor promotion studies
[1] = Carcinogen: 7,12-DIMETHYLBENZ(A)ANTHRACENE, Doses [Carcinogen]: TOP, Route [Carcinogen]: DERMAL, Route [Promoter]: DERMAL, Species: MOUSE, Strain/Sex: FEMALE

For `Cc1cccc(C)c1NC1=NCCCS1`, the outcome (Carcinogen: N-BIS(2-HYDROXYPROPYL)NITROSAMINE, 53609-64-6, Doses [Carcinogen]: 2,400 MG/KG ONCE, Doses [Promoter]: 0, 1,000 PPM IN DIET FOR 52 WK BEGINNING 1 WK POST CARCINOGEN DOSE (STUDY DURATION: 28 WK), Route [Carcinogen]: SUBCUTANEOUS, Route [Promoter]: ORAL, Species: RAT, Strain/Sex: F344/MALE) is listed as “thyroid gland: follicular cell adenoma or carcinoma”, the outcome (Carcinogen: N-NITROSOBIS(2-HYDROXYPROPYL)AMINE [53609-64-6], Doses [Carcinogen]: 2400 MG/KG IN SALINE ONCE, Doses [Promoter]: 0, 250, 500, 1000 PPM IN DIET FOR 26 WK, BEGINNING 1 WK AFTER CARCINOGEN DOSE (STUDY DURATION: 27 WK), Doses [Promoter]: 0, 250, 500, 1000 PPM IN DIET FOR 26 WK, BEGINNING 1 WK AFTER CARCINOGEN DOSE (STUDY DURATION: 27 WK), Route [Carcinogen]: SUBCUTANEOUS, Route [Promoter]: ORAL, Species: RAT, Strain/Sex: F344/MALE) is listed as “thyroid gland: follicular cell hyperplasia, follicular cell adenoma” and the outcome (Carcinogen: N-NITROSOBIS(2-HYDROXYPROPYL)AMINE, 53609-64-6, Doses [Carcinogen]: 2400 MG/KG IN SALINE ONCE, Doses [Promoter]: 0, 1,000 PPM IN FEED FOR 52 WK BEGINNING 1 WK POST CARCINOGEN TREATMENT (STUDY DURATION: 53 WK), Route [Carcinogen]: SUBCUTANEOUS, Route [Promoter]: ORAL, Species: RAT, Strain/Sex: F344/MALE) is listed as “thyroid: adenoma and carcinoma”.
In the case of `ClC1C(Cl)C(Cl)C(Cl)C(Cl)C1Cl` (configuration not stated), the outcome (Carcinogen: DIETHYLNITROSAMINE, 55-18-5, Doses [Carcinogen]: 5 UG/G BW IN 0.1 ML SALINE ONCE AT 15 D OF AGE, Doses [Promoter]: 0, 250 PPM IN DIET FOR 24 WK BEGINNING AT 28 D OF AGE (STUDY DURATION: 26 WK), Route [Carcinogen]: INTRAPERITONEAL, Route [Promoter]: ORAL, Species: MOUSE, Strain/Sex: B6C3F1/FEMALE) is listed as “liver: adenoma”.
In the case of `CCCC(C)C1(CC)C(=O)NC(=O)NC1=O` (configuration not stated), the outcome (Carcinogen: N-NITROSODIETHYLAMINE, 55-18-5, Doses [Carcinogen]: 75 MG/KG BW IN 0.85% SALINE ONCE, Doses [Promoter]: 0, 485 PPM IN DIET FOR DURATION OF STUDY BEGINNING 2 WK POST CARCINOGEN DOSE (STUDY DURATION: 78 WK), Route [Carcinogen]: INTRAPERITONEAL, Route [Promoter]: ORAL, Species: RAT, Strain/Sex: F344/MALE) is listed as “liver: carcinoma, adenoma”.
For `C1CCCCC1`, the outcome (Carcinogen: DIMETHYLBENZ[A]ANTHRACENE, 57-97-6, Doses [Carcinogen]: 0.2 UMOL (51.2 UG) IN O.2 ML ACETONE ONCE, Doses [Promoter]: 0, 100 µL 3/WK ADMINISTERED 7 D POST CARCINOGEN DOSE AND CONTINUING FOR DURATION OF STUDY (STUDY DURATION: 1 YR), Route [Carcinogen]: DERMAL, Route [Promoter]: DERMAL, Species: MOUSE, Strain/Sex: SWISS/FEMALE) is given as “skin: tumor, squamous cell papilloma, keratoacanthoma”.
In the case of `OO`, the outcome (Carcinogen: N-METHYL-N'-NITRO-N-NITROSOGUANIDINE, 70-25-7, Doses [Carcinogen]: 25 PPM IN WATER FOR 30 MIN, Doses [Promoter]: 0, 600, 3000 PPM IN DIETS CONTAINING HIGH (1000 PPM) LEVELS OF VITAMIN E FOR 8 MO (STUDY DURATION: 10 MO), Doses [Promoter]: 0, 600, 3000 PPM IN DIETS CONTAINING HIGH (1000 PPM) LEVELS OF VITAMIN E FOR 8 MO (STUDY DURATION: 10 MO), Route [Carcinogen]: IMMERSION, Route [Promoter]: ORAL, Species: FISH, Strain/Sex: RAINBOW TROUT/MALE, FEMALE) is listed as “liver: tumor” and the outcome (Carcinogen: N-METHYL-N'-NITRO-N-NITROSOGUANIDINE, 70-25-7, Doses [Carcinogen]: 25 PPM IN WATER FOR 30 MIN, Doses [Promoter]: 0, 600 PPM IN DIETS CONTAINING LOW (20 PPM) LEVELS OF VITAMIN E FOR 8 MO (STUDY DURATION: 10 MO), Route [Carcinogen]: IMMERSION, Route [Promoter]: ORAL, Species: FISH, Strain/Sex: RAINBOW TROUT/MALE, FEMALE) is listed as “liver: tumor”.
For `O=c1cc(-c2ccccc2)oc2ccc3ccccc3c12`, the outcome (Carcinogen: (+/-)-TRANS-7,8-DIHYDROBENZO[A]PYRENE-7,8-DIOL, 61443-57-0, Doses [Carcinogen]: 1 UG CO-ADMINISTERED WITH PROMOTER DOSE, Doses [Promoter]: 1 UG INJECTED INTO NEWLY HATCHED SAC-FRY CO-ADMINISTERED WITH CARCINOGEN DOSE (STUDY DURATION: 9 MO), Route [Carcinogen]: INJECTION, Route [Promoter]: INJECTION, Species: FISH, Strain/Sex: RAINBOW TROUT/MALE,FEMALE) is given as “liver: tumor”, the outcome (Carcinogen: DIETHYLNITROSAMINE, 55-18-5, Doses [Carcinogen]: 200 MG/KG BW ONCE (STUDY DURATION: 28 WK), Doses [Promoter]: 1% IN DIET FOR 26 WK BEGINNING 2 WK POST LAST CARCINOGEN DOSE, 2/3 PARTIAL HEPATECTOMY PERFORMED AT WEEK 3 (STUDY DURATI, Route [Carcinogen]: INTRAPERITONEAL, Route [Promoter]: ORAL, Species: RAT, Strain/Sex: F344/MALE) is given as “liver: tumor” and the outcome (Doses [Carcinogen]: 0.5 PPM AQUEOUS SOLUTION FOR 30 MIN EXPOSURE OF EMBRYOS 21 D AFTER FERTILIZATION, Doses [Promoter]: 0.05% IN DIET FOR 8 WK (STUDY DURATION: 1 YR), Route [Carcinogen]: IMMERSION, Route [Promoter]: ORAL, Species: FISH, Strain/Sex: MT. SHASTA RAINBOW TROUT) is given as “liver: hepatocellular carcinoma or mixed carcinoma or hepatocellular adenoma”.
In the case of `CC(N)Cc1ccccc1` (configuration not stated), the outcome (Carcinogen: BITTNER MAMMARY TUMOR VIRUS, Doses [Promoter]: 0, 0.4 MG/KG/D IN 1 ML/KG OF 0.9% SALINE FOR DURATION OF STUDY (STUDY DURATION: 730 D), Route [Promoter]: SUBCUTANEOUS, Species: MOUSE, Strain/Sex: C3H/FEMALE) is given as “mammary gland: tumor”.
For `CC(=O)[O-].CC(=O)[O-].[OH-].[OH-].[OH-].[OH-].[Pb+2].[Pb+2].[Pb+2]`, the outcome (Carcinogen: N-ETHYL-N-(2-HYDROXYETHYL)NITROSAMINE, Doses [Carcinogen]: 0.1% IN DRINKING WATER FOR 1 WK, Doses [Promoter]: 0.1% IN DIET FOR 35 WK, Route [Carcinogen]: ORAL, Route [Promoter]: ORAL, Species: RAT, Strain/Sex: F344/MALE) is listed as “kidney: renal cell tumor” and the outcome (Carcinogen: N-ETHYL-N-(2-HYDROXYETHYL)NITROSAMINE, Doses [Carcinogen]: 500 PPM IN DIET FOR TWO WK, Doses [Promoter]: 1000 PPM IN DIET FOR 20 WK, Route [Carcinogen]: ORAL, Route [Promoter]: ORAL, Species: RAT, Strain/Sex: WISTAR) is listed as “kidney: adenoma, adenocarcinoma”.
In the case of `N`, the outcome (Carcinogen: N-METHYL-N'-NITRO-N-NITROSOGUANIDINE, 70-25-7, Doses [Carcinogen]: 83 MG/L IN DRINKING WATER FOR 24 WK, Doses [Promoter]: 0, 0.01% IN DRINKING WATER BEGINNING POST LAST CARCINOGEN DOSE AND CONTINUING FOR 24 WK (STUDY DURATION: 48 WK), Route [Carcinogen]: ORAL, Route [Promoter]: ORAL, Species: RAT, Strain/Sex: SPRAGUE-DAWLEY/MALE) is given as “stomach: tumor” and the outcome (Carcinogen: N-METHYL-N'-NITRO-N-NITROSOGUANIDINE, 70-25-7, Doses [Carcinogen]: 83 MG/L IN DRINKING WATER FOR 24 WK, Doses [Promoter]: 0, 0.01% IN DRINKING WATER FOR 24 WK BEGINNING POST CARCINOGEN TREATMENT (STUDY DURATION: 48 WK), Route [Carcinogen]: ORAL, Route [Promoter]: ORAL, Species: RAT, Strain/Sex: SPRAGUE-DAWLEY/MALE) is given as “stomach: adenocarcinoma”.
In the case of `NC(=O)c1cccnc1`, the outcome (Carcinogen: DIETHYLNITROSAMINE, 55-18-5, Doses [Carcinogen]: 25 MG/KG ONCE PRECEDED 24 HR BY 70% PARTIAL HEPATECTOMY, Doses [Promoter]: 0, 6.7, 30 MILLIMOLAR IN DRINKING WATER BEGINNING 2 WK POST CARCINOGEN DOSE (STUDY DURATION: 20 MO), Doses [Promoter]: 0, 6.7, 30 MILLIMOLAR IN DRINKING WATER BEGINNING 2 WK POST CARCINOGEN DOSE (STUDY DURATION: 20 MO), Route [Carcinogen]: INTRAPERITONEAL, Route [Promoter]: ORAL, Species: RAT, Strain/Sex: F344/MALE) is listed as “kidney: tumor”.
In the case of `Cn1cnc([N+](=O)[O-])c1S`, the outcome (Carcinogen: UV IRRADIATION, Doses [Carcinogen]: 0.53 J/CM2 INCREASED BY 20% EVERY 2 WK TO 1.60 J/CM2 AND MAINTAINED AT 1.60 J/CM2 UNTIL DEATH, ADMINISTERED 5 D/WK FOR 1, Doses [Promoter]: 0, 15 UG/G BEGINNING 2 WK POST FIRST CARCINOGEN DOSE ADMINISTERED 2 HR PRIOR TO EACH CARCINOGEN DOSE (STUDY DURATION: 30, Route [Carcinogen]: DERMAL, Route [Promoter]: INTRAPERITONEAL, Species: MOUSE, Strain/Sex: SKH/HRL/FEMALE) is given as “skin: tumor”.
For `O=C(OO)c1cccc(Cl)c1`, the outcome [1] is given as “integumentary system (skin)”.
For `C/C(=C\CO)CCC[C@H](C)CCC[C@H](C)CCCC(C)C`, the outcome (Carcinogen: 7,12-DIMETHYLBENZ[A]ANTHRACENE, 57-97-6, Doses [Carcinogen]: 100 UG ONCE, Doses [Promoter]: 0, 100 MG 2 D/WK FOR 16 WK BEGINNING 1 WK POST CARCINOGEN DOSE (STUDY DURATION: 41 WK), Route [Carcinogen]: DERMAL, Route [Promoter]: DERMAL, Species: MOUSE, Strain/Sex: ICR/FEMALE) is given as “skin: tumor”.
In the case of `Cc1ccc(O)cc1`, the outcome [1] is listed as “integumentary system (skin)”.
For `CN(CCCC(=O)c1cccnc1)N=O`, the outcome (Carcinogen: Smoke, Doses [Carcinogen]: Exposure to smoke from non-filtered cigarettes for 6 mo, urine cotinine levels suggest equivalence to 1 pack a day human, Doses [Promoter]: 50 mg/kg every 4 wk for total of 4 doses, Route [Carcinogen]: Inhalation, Route [Promoter]: Subcutaneous, Species: Ferret, Strain/Sex: Male ( 9, 12/Group)) is listed as “lung: tumors: squamous cell carcinomas (1/12), adenocarcinomas (3/12) and adenos”.
